Tests used:
[1] = system: bulrush; assay: Test Example 1: herbicidal efficacy on rice paddy weeds pre-emergence; type: in vivo, Scirpus juncoides; conditions: dosage 1000 g/ha, 21 days
[2] = system: false pimpernel; assay: as above; type: in vivo, Lindernia pyxidaria; conditions: dosage 1000 g/ha, 21 days
[3] = system: barnyard glass; assay: Test Example 2: herbicidal efficacy on rice paddy weeds post-emergence; type: in vivo, Echinochloa crus-galli; conditions: dosage 1000 g/ha; post-emergence, one leaf stage; 21 days after treatment
Procedure, shortened: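 Plastic pots of 75 cm^2 were filled with clay loam soil and sown with barnyard glass and bulrush seeds, then topped with 75 cm^3 soil containing false pimpernel seeds. The pots were flooded to 5 cm water depth and held in a hot house. Twenty-one days after treatment, herbicidal efficacy was graded against an untreated control.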

[4] = system: transplanted paddy rice plant and Bulrush; assay: Test Example 5: selectivity between transplanted paddy rice plant and weeds; type: in vivo; conditions: (highest dosage with no phytotoxicity to paddy rice)/(lowest dosage with effective level 4 on Bulrush); rice 3000-100 g/ha, Bulrush 300-10 g/ha; 21 days
Procedure: (§1) The standard of judgment for herbicidal efficacy (degree of growth inhibition) and phytotoxicity 4 . . . 90%-100% of herbicidal efficacy or phytotoxicity 3 . . . 70%-89% of herbicidal efficacy or phytotoxicity 2 . . . 40%-69% of herbicidal efficacy or phytotoxicity 1 . . . 1%-39% of herbicidal efficacy or phytotoxicity 0 . . . 0% of herbicidal efficacy or phytotoxicity
Phytotoxicity test for transplanted paddy rice plants was carried out, as in Test Example 3, by the treatment of 3000, 1000, 300 and 100 (g/ha of the active ingredient) dosage, and herbicidal test to weed post-emergence was carried out to Burlush seeded as in Test Example 2 treating at 300, 100, 30 and 10 (g/ha) dosage. The pots were kept in a hot house for 21 days after the treatment, and the phytotoxicity and the herbicidal efficacy was investigated and evaluated according to the standard in Test Example 1 by comparing with the untreated control. […] Further, as a comparative compound, the compound No. 6-28 described in the JP-A-2004-107322 was used.

[5] = system: bulrush; assay: Test Example 4: low dosage test for rice paddy weeds; type: in vivo, Scirpus juncoides; conditions: 300 g/ha as an active ingredient; plants treated at the one leaf stage; 21 days after treatment; vs untreated control
Text: as §1
A 75 cm^2 plastic pot was filled with soil (clay loam) and planted seeds of bulrush which is a rice paddy weed. After covering the top with 75 cm^3 soil, the pot was filled with water so that the soil submerged under 5 cm depth of water and kept in a hot house. The test plants, at the one leaf stage, were treated with the solution of a formulation containing the compound of the present invention as an active ingredient at the predetermined effective dosage (300 g/ha as an active ingredient). The pots were kept in a hot house for 21 days after the treatment and the herbicidal efficacy was investigated and evaluated according to the standard in Test Example 1 by comparing with the untreated control. Further, as a comparative compound, the compound No. 6-28 described in the JP-A-2004-107322 was used.

[6] = system: paddy rice plant (cultivar: Nihonbare); assay: Test Example 3: phytotoxicity test for transplanted paddy rice plant; type: in vivo; conditions: dosage 1000 g/ha; transplanted rice, treated 5 days after transplantation; 21 days after treatment
Procedure, shortened: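 Clay loam soil was placed in a 75 cm^2 plastic pot and flooded to a water depth of 5 cm. Two Nihonbare paddy rice plants at the two-leaf stage were transplanted 1 cm deep and grown in a hot house. After treatment, pots stayed in the hot house for 21 days, and phytotoxicity was then graded against an untreated control.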

[7] = system: bulrush; assay: Test Example 2: herbicidal efficacy on rice paddy weeds post-emergence; type: in vivo, Scirpus juncoides; conditions: dosage 1000 g/ha; post-emergence, one leaf stage; 21 days after treatment
[8] = system: false pimpernel; assay: as above; type: in vivo, Lindernia pyxidaria; conditions: dosage 1000 g/ha; post-emergence, one leaf stage; 21 days after treatment

Compound	Bulrush pre (herbicidal efficacy grade) [1]	False pimpernel pre (herbicidal efficacy grade) [2]	Burnyard grass post (herbicidal efficacy grade) [3]	Selective Index [4]	Herbicide effect to Bulrush [5]	Phytotoxicity to paddy rice [6]	Bulrush post (herbicidal efficacy grade) [7]	False pimpernel post (herbicidal efficacy grade) [8]
COC(=O)N(c1ccccc1CN1CC(C)(C(F)(F)F)OC1=O)S(=O)(=O)C(F)(F)F (stereo not shown) [1-143]	4 (90%-100% of herbicidal efficacy or phytotoxicity)	4 (90%-100% of herbicidal efficacy or phytotoxicity)	4 (90%-100% of herbicidal efficacy or phytotoxicity)	10	4 (90%-100% of herbicidal efficacy or phytotoxicity)	1 (1%-39% of herbicidal efficacy or phytotoxicity)	4 (90%-100% of herbicidal efficacy or phytotoxicity)	4 (90%-100% of herbicidal efficacy or phytotoxicity)
CCCC1(CC)CN(Cc2ccccc2N(C(=O)OC)S(=O)(=O)C(F)(F)F)C(=O)O1 (stereo not shown) [1-144]	4 (90%-100% of herbicidal efficacy or phytotoxicity)	4 (90%-100% of herbicidal efficacy or phytotoxicity)	4 (90%-100% of herbicidal efficacy or phytotoxicity)	10	4 (90%-100% of herbicidal efficacy or phytotoxicity)	1 (1%-39% of herbicidal efficacy or phytotoxicity)	4 (90%-100% of herbicidal efficacy or phytotoxicity)	4 (90%-100% of herbicidal efficacy or phytotoxicity)
CCCC1(C)CN(Cc2ccccc2N(C(=O)OCC(C)C)S(=O)(=O)C(F)(F)F)C(=O)O1 (racemic) [1-122]	4 (90%-100% of herbicidal efficacy or phytotoxicity)	4 (90%-100% of herbicidal efficacy or phytotoxicity)	4 (90%-100% of herbicidal efficacy or phytotoxicity)	10	4 (90%-100% of herbicidal efficacy or phytotoxicity)	1 (1%-39% of herbicidal efficacy or phytotoxicity)	4 (90%-100% of herbicidal efficacy or phytotoxicity)	4 (90%-100% of herbicidal efficacy or phytotoxicity)
CC1(C)CN(Cc2ccccc2NS(=O)(=O)C(F)(F)F)C(=S)O1 [1-49]	4 (90%-100% of herbicidal efficacy or phytotoxicity)	4 (90%-100% of herbicidal efficacy or phytotoxicity)	4 (90%-100% of herbicidal efficacy or phytotoxicity)	10	4 (90%-100% of herbicidal efficacy or phytotoxicity)	2 (40%-69% of herbicidal efficacy or phytotoxicity)	4 (90%-100% of herbicidal efficacy or phytotoxicity)	4 (90%-100% of herbicidal efficacy or phytotoxicity)
COC(=O)N(c1ccccc1CN1CC(C)(c2ccccc2)OC1=O)S(=O)(=O)C(F)(F)F (stereo not shown) [1-142]	4 (90%-100% of herbicidal efficacy or phytotoxicity)	4 (90%-100% of herbicidal efficacy or phytotoxicity)	4 (90%-100% of herbicidal efficacy or phytotoxicity)	≧30	4 (90%-100% of herbicidal efficacy or phytotoxicity)	1 (1%-39% of herbicidal efficacy or phytotoxicity)	4 (90%-100% of herbicidal efficacy or phytotoxicity)	4 (90%-100% of herbicidal efficacy or phytotoxicity)
CC(C)COC(=O)N(c1ccccc1CN1C(=O)OC(C)(C)C1=O)S(=O)(=O)C(F)(F)F [Compound No. 1-189, 3-{2-[N-(isobutoxycarbonyl)-N-(trifluoromethanesulfonyl)amino]benzyl}-5,5-dimethyloxazolidine-2,4-dione]	4 (90%-100% of herbicidal efficacy or phytotoxicity)	4 (90%-100% of herbicidal efficacy or phytotoxicity)	4 (90%-100% of herbicidal efficacy or phytotoxicity)	≧10	4 (90%-100% of herbicidal efficacy or phytotoxicity)	1 (1%-39% of herbicidal efficacy or phytotoxicity)	4 (90%-100% of herbicidal efficacy or phytotoxicity)	4 (90%-100% of herbicidal efficacy or phytotoxicity)
CCOC(=O)N(c1ccccc1CN1CC(C)(CC(C)C)OC1=O)S(=O)(=O)C(F)(F)F (racemic) [1-125]	4 (90%-100% of herbicidal efficacy or phytotoxicity)	4 (90%-100% of herbicidal efficacy or phytotoxicity)	4 (90%-100% of herbicidal efficacy or phytotoxicity)	10	4 (90%-100% of herbicidal efficacy or phytotoxicity)	1 (1%-39% of herbicidal efficacy or phytotoxicity)	4 (90%-100% of herbicidal efficacy or phytotoxicity)	4 (90%-100% of herbicidal efficacy or phytotoxicity)
CC(C)COC(=O)N(c1ccccc1CN1CC2(CC2)OC1=O)S(=O)(=O)C(F)(F)F [1-89]	4 (90%-100% of herbicidal efficacy or phytotoxicity)	4 (90%-100% of herbicidal efficacy or phytotoxicity)	4 (90%-100% of herbicidal efficacy or phytotoxicity)	10	4 (90%-100% of herbicidal efficacy or phytotoxicity)	1 (1%-39% of herbicidal efficacy or phytotoxicity)	4 (90%-100% of herbicidal efficacy or phytotoxicity)	4 (90%-100% of herbicidal efficacy or phytotoxicity)
CC(C)COC(=O)N(c1ccccc1CN1C(=O)OC2CCCCC21)S(=O)(=O)C(F)(F)F (stereo not shown) [1-48]	4 (90%-100% of herbicidal efficacy or phytotoxicity)	4 (90%-100% of herbicidal efficacy or phytotoxicity)	4 (90%-100% of herbicidal efficacy or phytotoxicity)	10	3 (70%-89% of herbicidal efficacy or phytotoxicity)	1 (1%-39% of herbicidal efficacy or phytotoxicity)	4 (90%-100% of herbicidal efficacy or phytotoxicity)	4 (90%-100% of herbicidal efficacy or phytotoxicity)
CC1CN(Cc2ccccc2NS(=O)(=O)C(F)(F)F)C(=O)O1 (stereo not shown) [1-17]	4 (90%-100% of herbicidal efficacy or phytotoxicity)	4 (90%-100% of herbicidal efficacy or phytotoxicity)	4 (90%-100% of herbicidal efficacy or phytotoxicity)	10	3 (70%-89% of herbicidal efficacy or phytotoxicity)	0 (0% of herbicidal efficacy or phytotoxicity)	4 (90%-100% of herbicidal efficacy or phytotoxicity)	4 (90%-100% of herbicidal efficacy or phytotoxicity)
CC(C)COC(=O)N(c1ccccc1CN1CC(C)(C(F)(F)F)OC1=O)S(=O)(=O)C(F)(F)F (stereo not shown) [1-136]	4 (90%-100% of herbicidal efficacy or phytotoxicity)	4 (90%-100% of herbicidal efficacy or phytotoxicity)	4 (90%-100% of herbicidal efficacy or phytotoxicity)	10	4 (90%-100% of herbicidal efficacy or phytotoxicity)	1 (1%-39% of herbicidal efficacy or phytotoxicity)	4 (90%-100% of herbicidal efficacy or phytotoxicity)	4 (90%-100% of herbicidal efficacy or phytotoxicity)

— US20080274892A1, “Novel Haloalkylsulfonanilide Derivative, Herbicide, and Method of Use Thereof” (priority 2005, published 2008)
